{"source": "patent US10293055B2", "about": "“Acetylenedicarboxyl linkers and their uses in specific conjugation of a cell-binding molecule” (SUZHOU M-CONJ BIOTECH CO., LTD., priority 2015, dated 2019)", "key": {"[1]": {"test_system": "HL-60, a human promyelocytic leukemia cell line", "details": "read-out: IC50 (nM) HL60 cell (Ag+); MTT, 120 hours incubation", "experimental": "(§1) The cell lines used in the cytotoxicity assays were HL-60, a human promyelocytic leukemia cell line; NCI-N87, a human gastric carcinoma cell line; BT-474, a human invasive ductal carcinoma cell line; and SKOV3, a human ovarian carcinoma cell line. For HL-60, NCI-N87, and BT-474 cells, the cells were grown in RPMI-1640 with 10% FBS. For SKOV3 cells, the cells were grown in McCoy's 5A Medium with 10% FBS. To run the assay, the cells (180 μl, 6000 cells) were added to each well in a 96-well plate and incubated for 24 hours at 37° C. with 5% CO2. Next, the cells were treated with test compounds (20 μl) at various concentrations in appropriate cell culture medium (total volume, 0.2 mL). The control wells contain cells and the medium but lack the test compounds. The plates were incubated for 120 hours at 37° C. with 5% CO2. MTT (5 mg/ml) was then added to the wells (20 μl) and the plates were incubated for 1.5 hr at 37° C. The medium was carefully removed and DMSO (180 μl) was added afterward. After it was shaken for 15 min, the absorbance was measured at 490 nm and 570 nm with a reference filter of 620 nm. The inhibition % was calculated according to the following equation: inhibition %=[1-(assay-blank)/(control-blank)]×100."}, "[2]": {"test_system": "SKOV3, a human ovarian carcinoma cell line", "experimental": "as §1"}, "[3]": {"test_system": "NCI-N87, a human gastric carcinoma cell line", "experimental": "as §1"}, "[4]": {"test_system": "human gastric carcinoma N-87 cell line tumor xenograft", "details": "one injection", "experimental": "Five-week-old female BALB/c Nude mice (24 animals) were inoculated subcutaneously in the area under the right shoulder with N-87 carcinoma cells (5×10^6 cells/mouse) in 0.1 mL of serum-free medium. The tumors were grown for 8 days to an average size of 130 mm^3. The animals were then randomly divided into 4 groups (6 animals per group). The first group of mice served as the control group and was treated with the phosphate-buffered saline vehicle. […] Three dimensions of the tumor were measured every 4 days and the tumor volumes were calculated using the formula tumor volume=½ (length×width×height). The weight of the animals was also measured at the same time. A mouse was sacrificed when any one of the following criteria was met: (1) loss of body weight of more than 20% from pretreatment weight, (2) tumor volume larger than 1500 mm^3, (3) too sick to reach food and water, or (4) skin necrosis. A mouse was considered to be tumor-free if no tumor was palpable."}}, "data": [{"substance": "T-DM1", "values": [{"measurement": "IC50", "setting": "[1]", "result": "> 15", "unit": "nM"}, {"measurement": "Specificity for SK-OV-3 cell", "setting": "[2]; IC50 HL60 / IC50 SK-OV-3", "result": "over 78"}, {"measurement": "IC50", "setting": "[2]; read-out: IC50 (nM) SK-OV-3 cell (Ag+), MTT, 120 hours incubation", "result": 0.191, "unit": "nM"}, {"measurement": "Specificity for N87 cell", "setting": "[3]; IC50 HL60 / IC50 N87", "result": "over 55"}, {"measurement": "IC50", "setting": "[3]; read-out: IC50 (nM) N87 cell (Ag+), MTT, 120 hours incubation", "result": 0.27, "unit": "nM"}, {"measurement": "Animals with no tumor measurable", "setting": "[4]; 5 mg/Kg intravenously, 6 animals per group", "result": "2/6"}, {"measurement": "Anti-tumor effect (FIG. 11)", "setting": "[4]; 5 mg/kg, i.v.", "result": "did not completely eliminate the tumor"}, {"measurement": "Duration of tumor growth inhibition", "setting": "[4]; 5 mg/kg, i.v.", "result": 44, "unit": "days"}]}]}
